# Data as given in patent US20240269094A1, “Treatment of canine dermatitis and skin irritation” (priority 2023, published 2024).
# Like-named read-outs stand apart in the source and are kept apart here.
# Assays:
# TRPA1 = molecular target: T1, TRPA1 (Homo sapiens, UniProt O75762); test: Bioassay in cells transfected with TRPA1 (FIG. 4); assay type: cell-based
# T1 construct: expressed in transfected cells
# Description: FIG. 4 Bioassay of FEMA 4557 (labeled as BUDA on the graph) in TRPM8 and TRPA1. Data from the laboratory of Prof. Seok-Yong Lee at Duke University.
# FIG. 4 Bioassay of FEMA 4557 (labeled as BUDA) in TRPM8 and TRPA1. Data of Prof. Seok-Yong Lee at Duke University.
# tongue [1] = test: Oral cavity screen: 15 mg of crystals on the dorsal surface of the tongue; assay type: in vivo, human
# Description: In this discovery, sensory activity in the oral cavity was the first screen. The goal was to identify candidates producing unusual sensations. Test agents, prepared as 15 mg of white crystals, were placed on the dorsal surface of the tongue. The chemical structures and identifying characteristics are in Table 1. […] Related cooling agents were not freezing cold, except for WS-23.
# TRPM8 [2] = molecular target: T2, TRPM8 (Mus musculus, UniProt Q8R4D5); set-up: EC50; conditions: Ref. 3 (Bodding et al., 2007); cited from earlier work
# T2 sequence (Q8R4D5 whole entry): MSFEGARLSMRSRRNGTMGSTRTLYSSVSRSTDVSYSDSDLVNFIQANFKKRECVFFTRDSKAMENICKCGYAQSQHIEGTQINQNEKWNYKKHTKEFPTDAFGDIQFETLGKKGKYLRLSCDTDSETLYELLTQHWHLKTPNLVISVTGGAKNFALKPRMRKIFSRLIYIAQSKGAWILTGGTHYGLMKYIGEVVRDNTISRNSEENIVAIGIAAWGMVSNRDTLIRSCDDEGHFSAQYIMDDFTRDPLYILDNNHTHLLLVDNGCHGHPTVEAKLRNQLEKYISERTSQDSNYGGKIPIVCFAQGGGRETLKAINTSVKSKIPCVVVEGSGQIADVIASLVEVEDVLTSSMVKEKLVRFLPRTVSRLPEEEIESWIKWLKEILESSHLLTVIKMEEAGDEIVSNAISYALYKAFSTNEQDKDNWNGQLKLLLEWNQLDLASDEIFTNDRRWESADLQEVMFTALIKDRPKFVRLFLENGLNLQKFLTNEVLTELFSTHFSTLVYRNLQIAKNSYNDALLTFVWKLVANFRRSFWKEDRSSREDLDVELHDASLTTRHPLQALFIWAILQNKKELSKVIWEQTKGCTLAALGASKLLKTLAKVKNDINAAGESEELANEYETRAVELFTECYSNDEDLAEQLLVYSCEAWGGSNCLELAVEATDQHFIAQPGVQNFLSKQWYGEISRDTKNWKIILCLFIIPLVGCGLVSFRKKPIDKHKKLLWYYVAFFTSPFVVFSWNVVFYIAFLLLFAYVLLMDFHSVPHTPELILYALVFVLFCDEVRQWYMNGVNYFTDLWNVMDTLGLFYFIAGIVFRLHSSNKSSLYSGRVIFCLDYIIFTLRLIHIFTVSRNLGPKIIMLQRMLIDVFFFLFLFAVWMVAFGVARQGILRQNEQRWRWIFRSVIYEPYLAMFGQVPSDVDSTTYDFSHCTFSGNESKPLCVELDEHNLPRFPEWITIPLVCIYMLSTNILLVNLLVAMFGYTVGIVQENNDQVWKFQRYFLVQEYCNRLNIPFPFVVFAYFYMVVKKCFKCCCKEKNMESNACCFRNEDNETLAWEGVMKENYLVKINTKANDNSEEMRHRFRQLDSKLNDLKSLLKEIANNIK
# TRPM8 [3] = molecular target: T3, TRPM8 (Rattus norvegicus, UniProt Q8R455); set-up: EC50; other: Sherkheli, 196/1500; conditions: Ref. 4 (Sherkheli et al., 2010); cited from earlier work
# T3 sequence (Q8R455 whole entry): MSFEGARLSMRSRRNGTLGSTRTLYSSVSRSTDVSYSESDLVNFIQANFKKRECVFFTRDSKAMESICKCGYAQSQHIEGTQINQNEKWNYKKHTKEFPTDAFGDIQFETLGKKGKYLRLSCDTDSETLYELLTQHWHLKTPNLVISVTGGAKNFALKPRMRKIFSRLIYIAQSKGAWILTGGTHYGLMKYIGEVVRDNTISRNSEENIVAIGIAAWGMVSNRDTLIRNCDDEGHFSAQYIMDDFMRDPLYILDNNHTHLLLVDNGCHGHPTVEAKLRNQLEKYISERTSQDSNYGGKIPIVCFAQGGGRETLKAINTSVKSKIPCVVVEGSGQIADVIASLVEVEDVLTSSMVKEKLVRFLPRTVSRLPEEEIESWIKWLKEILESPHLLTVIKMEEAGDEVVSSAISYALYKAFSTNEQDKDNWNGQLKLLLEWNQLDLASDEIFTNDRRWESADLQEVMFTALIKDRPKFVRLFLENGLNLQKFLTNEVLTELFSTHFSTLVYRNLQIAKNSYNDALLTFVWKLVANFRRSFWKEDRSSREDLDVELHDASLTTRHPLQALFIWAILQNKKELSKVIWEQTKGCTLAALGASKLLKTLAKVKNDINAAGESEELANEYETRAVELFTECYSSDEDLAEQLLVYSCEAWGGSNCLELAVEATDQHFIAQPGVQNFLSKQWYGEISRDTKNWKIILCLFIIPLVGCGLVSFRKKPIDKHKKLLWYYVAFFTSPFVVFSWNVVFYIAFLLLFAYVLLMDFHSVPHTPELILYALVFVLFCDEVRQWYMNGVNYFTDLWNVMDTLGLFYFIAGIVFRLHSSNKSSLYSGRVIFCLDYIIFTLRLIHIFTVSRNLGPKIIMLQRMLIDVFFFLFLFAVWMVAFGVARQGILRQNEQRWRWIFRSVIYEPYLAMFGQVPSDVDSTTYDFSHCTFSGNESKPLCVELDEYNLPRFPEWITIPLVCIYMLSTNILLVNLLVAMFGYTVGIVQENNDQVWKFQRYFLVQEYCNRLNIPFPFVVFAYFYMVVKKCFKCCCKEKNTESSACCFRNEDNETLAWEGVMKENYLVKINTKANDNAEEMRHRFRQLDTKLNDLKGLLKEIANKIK
# TRPM8 [4] = molecular target: T2, TRPM8; conditions: Ref. 2 (Behrendt et al., 2004); cited from earlier work
# [5] = system: itch induced by various pruritogens; test: Itch induced by pruritogens on skin of healthy volunteers (FIG. 1); assay type: in vivo, human; conditions: gel on skin, five test pruritogens, itch self-rated 0 to 10 for 10 min
# Description: FIG. 1. Topical Application of a cooling DIPA1-7 gel on skin of healthy volunteers inhibits itch induced by various pruritogens. n=30 subjects per trial. Results of Prof. Hyeone Kim, Sacred Heart Hospital, […] University, Seoul, Korea. Itch intensity was self-rated on a scale of 0 to 10 for 10 min (maximum score=100). […] Further details will be described in a scientific paper.
# tongue [6] = test: Oral cavity screen: 15 mg of crystals on the dorsal surface of the tongue; assay type: in vivo, human; conditions: less than 2 mg on the tongue
# [7] = system: itch of urticaria and scalp itch; conditions: Kang et al., 2022; cited from earlier work
# philtrum skin = test: Philtrum (skin) bioassay of cooling; assay type: in vivo, human; conditions: for Duration-Skin: Wei, Table 6, see FIG. 6; for Comments: quality of sensation on philtrum skin: 8% wt/vol; for Duration of cooling: 8% wt/vol on philtrum
# Description: FIG. 5. The philtrum bioassay. Cooling agents, prepared as a or in solution are applied to the philtrum skin. Cooling intensity is rated on a scale of 0 to 3, with 0=no changes in sensation, 1=a slight feeling of coolness, cold or tingling, 2=a clearcut feeling of coolness of cold, and 3=a robust feeling of coolness of cold. The duration of cooling was recorded until two zeroes were measured 10 min apart.
# TRPM8 EC50 Receptor Assay. […] A receptor assay is a standard tool and can be done quickly. For example, in a 384-plate assay, you can easily test 10 compounds and get dose-response data. For a chemical agonist, an in vitro TRPM8 assay generates an EC50 (median effective concentration). But the quantitative correlation between the EC50 on TRPM8 and cooling sensation was vague. That is, the science was “roughly” predictive, but there was considerable uncertainty for each agonist. […] Philtrum (Skin) Assay. For cooling sensations on the skin, it is necessary to test the substance on the skin. Wei proposed the use of the skin on the philtrum as a test site for cooling activity of chemicals (FIG. 5). The test substance is dissolved in a carrier, such as solvent, gel, or ointment and applied to the philtrum, a surface area of […]. The subject records sensations on the philtrum and environs as:
# The subject is given a form to record observations and instructions to mark sensations on the philtrum and environs as: 0=no changes in sensation, 1=a slight feeling of coolness, cold, or tingling, 2=a clearcut feeling of coolness or cold, and 3=a robust feeling of coolness and cold.
# The intervals for measurements are usually at 5, to 15 min after application, until two successive zeros are obtained. The philtrum application site is the midline groove above the upper lip border and vermilion. The gel is placed on the philtrum with a cotton-tipped applicator up to the nasolabial folds and sometimes, but not deliberately, on the lower nostrils (subnasale). Cold receptors densely innervate the philtrum skin (FIG. 5), second only to the surfaces of the eyeball and anogenitalia. The lips also have a high density of “cold spots.” Hensel et al. mapped the cold spots on the human face (cited in Dhaka et al., 2008). In animals such as the rat the mystacial pad (nose pad with vibrissae) is abundantly labeled with TRPM8-fibers. “Cold Points” linked to single-unit neuronal discharges can be measured in experimental animals. Wei has direct experience in such experiments (Poree et al., 1989).
# Dip a cotton-tipped applicator (Puritan Cotton-tipped applicators, or Q-Tips) into a reservoir bottle containing the liquid or semi-liquid (gel) test substance. The composition adhering to the cotton (about 0.1 mL) is put on the skin. The philtrum site is shown in a cartoon. A subject can practice the method in front of a mirror with a high-intensity light source. Results for test on the philtrum are in Table 8 and FIG. 5. See data in FIG. 6. Cooling agents, prepared as an 8% wt./vol. gel, was tested topically on the philtrum skin assay. The duration of cooling was recorded (min on y-axis). The startling activity of FEMA 4557, cooling for ˜3 hr, was unexpected and surprising. FEMA 3784 is also known as Cool 10 or menthoxypropanediol. […]
# TRPM8 [8] = molecular target: TRPM8 (Homo sapiens, UniProt Q7Z2W7); set-up: EC50; other: Johnson, 2.2/2.2; conditions: Ref. 5 (Johnson et al., 2018); cited from earlier work
# oral cavity = conditions: 100 ppm in 5% sucrose; scale of 0 to 9 units; Johnson, 2018; cited from earlier work
# [9] = Comparison of classes of cooling agents for applications on the canine skin (grades); set-up: species or system dog; key: A = excellent; B = average; C = poor; F = does not work; conditions: grade
# Description: Here are comments on grades assigned to specific classes of cooling agents (Table 3). […] The p-menthane carboxamides cover a wide range of compounds, but they are difficult for skin formulation to achieve a long duration of action. Menthol is short-acting and irritating, especially when it is near the ocular surface. The 1-dialkylphosphorylalkane known as DIPA1-7 (Cryosim-1, 1-dialkylphosphorylheptane) is an excellent skin agent, but costs are high for dermatological applications.
# scratching excoriations = conditions: ointment; Biro et al., 2005; cited from earlier work
# TRPM8 [10] = molecular target: T3, TRPM8; conditions: Ref. 1 column (McKemy et al., 2002); cited from earlier work
# [11] = system: canine dermatitis, scratching and licking; test: Topical treatment of canine skin irritation (case studies); assay type: in vivo, dog; conditions: Study 3, repeated bathing
# Description: The Applicant gave the dog's owner an airless pump dispenser containing 8% wt/vol of FEMA 4557 dispersed in 4 mg/ml of carbapol 980, formulated with 1% ethanol and 1% menthol, and instructed him to apply the gel to the skin of the dog's belly and groin.
# A twelve-year-old West Highland Terrier had periodic episodes of seasonal skin allergy. […] The owner of the dog, who had access to a pharmacy, applied nystatin ointment and a potent skin steroid cream containing […].
# Next, a 20% wt/vol FEMA 4557 solution, dissolved in propylene glycol, was applied to the interdigital folds of the paws with a cotton-tipped applicator (FIG. 9).
# canine atopic dermatitis = conditions: cited from earlier work
# T1 sequence (O75762 whole entry, species assumed): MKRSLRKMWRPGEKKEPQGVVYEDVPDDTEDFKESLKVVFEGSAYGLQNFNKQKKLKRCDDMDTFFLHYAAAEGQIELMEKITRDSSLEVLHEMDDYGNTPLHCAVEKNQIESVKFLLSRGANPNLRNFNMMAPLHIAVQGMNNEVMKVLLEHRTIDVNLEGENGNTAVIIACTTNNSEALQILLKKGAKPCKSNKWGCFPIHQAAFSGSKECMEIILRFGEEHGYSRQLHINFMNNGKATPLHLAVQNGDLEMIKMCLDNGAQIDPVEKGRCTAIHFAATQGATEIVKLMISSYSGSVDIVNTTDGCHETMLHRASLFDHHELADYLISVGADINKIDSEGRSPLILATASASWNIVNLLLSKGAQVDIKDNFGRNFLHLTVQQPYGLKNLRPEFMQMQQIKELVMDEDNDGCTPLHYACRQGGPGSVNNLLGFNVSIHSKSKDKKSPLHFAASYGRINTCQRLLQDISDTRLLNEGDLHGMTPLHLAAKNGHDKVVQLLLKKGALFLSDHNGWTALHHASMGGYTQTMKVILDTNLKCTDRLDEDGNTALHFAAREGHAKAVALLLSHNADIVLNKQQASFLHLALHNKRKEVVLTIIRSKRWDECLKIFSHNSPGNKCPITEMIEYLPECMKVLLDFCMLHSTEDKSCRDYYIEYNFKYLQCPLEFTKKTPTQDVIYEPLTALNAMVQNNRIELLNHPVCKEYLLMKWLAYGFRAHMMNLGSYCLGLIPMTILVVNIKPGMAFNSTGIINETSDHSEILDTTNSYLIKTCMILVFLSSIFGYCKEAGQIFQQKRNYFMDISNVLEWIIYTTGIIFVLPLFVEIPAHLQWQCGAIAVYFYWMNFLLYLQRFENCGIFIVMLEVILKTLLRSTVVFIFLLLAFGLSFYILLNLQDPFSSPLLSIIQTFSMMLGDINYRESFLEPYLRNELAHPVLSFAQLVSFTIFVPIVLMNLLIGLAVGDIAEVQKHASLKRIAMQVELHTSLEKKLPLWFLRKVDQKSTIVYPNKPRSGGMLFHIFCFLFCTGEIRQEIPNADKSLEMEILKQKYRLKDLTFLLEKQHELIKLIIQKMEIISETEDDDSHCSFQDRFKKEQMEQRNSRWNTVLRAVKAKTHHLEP
smiles,measurement,setting,value
"C=CCN=C=S [AITC, allyl isothiocyanate]",activity on TRPA1,TRPA1,active
"CC(C)OC(=O)CNC(=O)[C@@H]1C[C@H](C)CC[C@H]1C(C)C [Ax-8, p-Menthane-Gly-OiPr]",Effects of 15 mg on tongue: duration,tongue [1],~27 min
same,Effects of 15 mg on tongue: sensation,tongue [1],pleasant cooling in oral cavity
CCOC(=O)[C@@H](C)NC(=O)[C@@H]1C[C@H](C)CC[C@H]1C(C)C [CPS-369],EC50,TRPM8 [2],3.6 µM
same,EC50,TRPM8 [3],65 µM
"CC(C)[C@@H]1CC[C@@H](C)C[C@H]1OCC(O)CO (stereo partly shown) [Cool 10, menthoxypropanediol]",EC50,TRPM8 [4],6 µM
"CCCCCCCP(=O)(C(C)C)C(C)C [DIPA-1-7, 1-diisopropylphosphorylheptane]",inhibition of pruritogen-induced itch,[5],significantly inhibited itching
same,sensation on the tongue,tongue [6],"frigid, stinging, icy, and painful cold"
same,Effects of 15 mg on tongue: sensation,tongue [1],"stinging, painful cold"
same,itch in human subjects,[7],inhibited the itch of urticaria and scalp itch
same,adverse skin sensations,"philtrum skin; on skin, contrast to FEMA 4557",frigid cold and irritation
CCNC(=O)[C@@H]1C[C@H](C)CC[C@H]1C(C)C [WS-3],EC50,TRPM8 [3],210 µM
same,EC50,TRPM8 [8],5.9 µM
same,Cooling Intensity Oral Cavity Scaled,oral cavity,5.2
same,Effects of 15 mg on tongue: duration,tongue [1],~8 min
same,Effects of 15 mg on tongue: sensation,tongue [1],pleasant cooling in oral cavity
same,Duration-Skin,philtrum skin,0.3 h
same,EC50,TRPM8 [4],3.7 µM
CCOC(=O)CNC(=O)[C@@H]1C[C@H](C)CC[C@H]1C(C)C [WS-5],EC50,TRPM8 [3],26 µM
same,EC50,TRPM8 [8],0.5 µM
same,Cooling Intensity Oral Cavity Scaled,oral cavity,6
same,Effects of 15 mg on tongue: duration,tongue [1],~12 min
same,Effects of 15 mg on tongue: sensation,tongue [1],pleasant cooling in oral cavity
same,Comments: quality of sensation on philtrum skin,philtrum skin,pleasant cool sensations of skin
same,Duration of cooling,philtrum skin,51 ± 4 min
same,Duration-Skin,philtrum skin,0.5 h
COc1ccc(NC(=O)[C@@H]2C[C@H](C)CC[C@H]2C(C)C)cc1 [WS-12],EC50,TRPM8 [2],0.2 µM
same,EC50,TRPM8 [3],12 µM
same,EC50,TRPM8 [8],22.1 µM
same,Cooling Intensity Oral Cavity Scaled,oral cavity,3
same,Effects of 15 mg on tongue: duration,tongue [1],~20 min
same,Effects of 15 mg on tongue: sensation,tongue [1],pleasant cooling in oral cavity
same,Comments: quality of sensation on philtrum skin,philtrum skin,pleasant cool sensations on skin
same,Duration of cooling,philtrum skin,38 ± 4 min
same,Duration-Skin,philtrum skin,0.4 h
CCCCCCCP(=O)(C(C)CC)C(C)CC (stereo not shown) [WS-148],EC50,TRPM8 [2],4.1 µM
O=C1NC(c2cccc([N+](=O)[O-])c2)=CCN1c1ccccc1O [icilin],EC50,TRPM8 [2],1.4 µM
same,EC50,TRPM8 [3],7 µM
same,Absence of Irritancy,[9],A
same,Potency,[9],A
same,Rapid Onset,[9],B
same,Safety in Use,[9],A
same,Sufficient Duration,[9],A
same,scratching excoriations,scratching excoriations,prevented scratching excoriations
same,EC50,TRPM8 [10],0.36 µM
CC(=O)N1CCN(c2ccc(OCC3COC(Cn4ccnc4)(c4ccc(Cl)cc4Cl)O3)cc2)CC1 (stereo not shown) [ketoconazole],effect of antifungal shampoo on skin irritation,[11],did not make any difference
CC(C)[C@@H]1CC[C@@H](C)C[C@H]1O [l-menthol],EC50,TRPM8 [2],10.4 µM
same,EC50,TRPM8 [3],196 µM
same,Cooling Intensity Oral Cavity Scaled,oral cavity,5
same,Duration-Skin,philtrum skin,0.3 h
same,EC50,TRPM8 [4],4.1 µM
same,EC50,TRPM8 [10],67 µM
Clc1ccc(COC(Cn2ccnc2)c2ccc(Cl)cc2Cl)c(Cl)c1 (stereo not shown) [miconazole],effect of antifungal shampoo on skin irritation,[11],did not make any difference
CNS(=O)(=O)C[C@H]1CC[C@H](N(C)c2ncnc3[nH]ccc23)CC1 [oclacitinib],onset of anti-scratching effects,canine atopic dermatitis; oral tablet once or twice a day,as early as four hours after dosing
same,Onset,canine atopic dermatitis; oral tablet,"15 min, hours"
